From US12527779B2, “Prostaglandin E2 (PGE2) EP4 receptor antagonists” (Domain Therapeutics, priority 2019, dated 2026) come the findings set out here.

In general, IC50 refers to the midpoint of a concentration-inhibition curve. High values mean weaker potency in that assay, low ones greater potency in that assay.

Where a name gives a salt, the structure may show the parent alone.

T1 sequence (P35408 whole entry): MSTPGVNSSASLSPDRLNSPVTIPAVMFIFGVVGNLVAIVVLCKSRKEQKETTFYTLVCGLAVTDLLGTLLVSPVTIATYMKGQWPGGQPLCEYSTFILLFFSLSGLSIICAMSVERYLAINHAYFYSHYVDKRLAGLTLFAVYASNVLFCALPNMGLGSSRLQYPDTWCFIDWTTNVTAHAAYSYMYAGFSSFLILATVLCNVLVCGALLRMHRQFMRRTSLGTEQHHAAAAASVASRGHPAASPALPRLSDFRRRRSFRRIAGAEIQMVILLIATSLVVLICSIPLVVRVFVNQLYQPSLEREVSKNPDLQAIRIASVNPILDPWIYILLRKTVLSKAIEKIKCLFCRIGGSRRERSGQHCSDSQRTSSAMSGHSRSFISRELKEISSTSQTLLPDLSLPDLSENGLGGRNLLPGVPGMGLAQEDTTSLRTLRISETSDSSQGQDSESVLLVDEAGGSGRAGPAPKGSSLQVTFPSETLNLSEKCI

This experiment concerns the target T1, human EP4 (hEP4) receptor (Homo sapiens, UniProt P35408).
T1 construct: expressed in transfected cells; host or cells: HEK-293 T cells, transient co-transfection with polyethylenimine
As to the kind of experiment: In vitro human EP4 functional antagonist activity using BRET biosensors (cAMP EPAC biosensor, TCS2510 stimulation). Format: cell-based. The settings on record: antagonist activity vs EC60 TCS2510, hEP4 in HEK-293 T cells. Put shortly: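 Antagonism measured as inhibition of EC60 TCS2510-induced cAMP BRET signal (EPAC luciferase/GFP sensor) in transiently hEP4-expressing HEK-293T cells, following 5 min compound preincubation and 10 min luminescence recording. Plates equilibrated 1 h at 22 °C in HEPES buffer; 10 concentrations over 4.5 logs, duplicate in two independent experiments, sigmoidal variable-slope IC50.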
In general terms: In BRET a luciferase serves as donor, and the signal depends on an acceptor being close.
`C[C@H](NC(=O)C1(NCCOc2cccc(Cl)c2)CCCC1)C12CC(C(=O)O)(C1)C2` [Example 64, 3-[(1S)-1-[[1-[2-(3-Chlorophenoxy)ethylamino]cyclopentanecarbonyl]amino]ethyl]bicyclo[1.1.1]pentane-1-carboxylic acid, hydrochloride] came in with a concentration for half-maximal inhibition (IC50) of under 1000 nM.
The same measure for `C[C@H](NC(=O)C1(NCCCc2ccccc2)CCOCC1)c1ccc(C(=O)O)cc1` [Example 18, 4-[(1S)-1-[[4-(3-Phenylpropylamino)tetrahydropyran-4-carbonyl]amino]ethyl]benzoic acid, hydrochloride]: under 1000 nM; for `C[C@H](NC(=O)C1(N2CC[C@@H](Oc3cccc(Cl)c3)C2)CC1)c1ccc(C(=O)O)cc1` [Example 160, 4-[(1S)-1-[[1-[(3R)-3-(3-Chlorophenoxy)pyrrolidin-1-yl]cyclopropane-1-carbonyl]amino]ethyl]benzoic acid, hydrochloride]: under 100 nM; for `O=C(O)c1ccc(C2(NC(=O)C3(N4CCC[C@@H](Oc5cccc(Cl)c5)C4)CCOCC3)CC2)cc1` [Example 137, 4-[1-[[4-[(3R)-3-(3-Chlorophenoxy)-1-piperidyl]tetrahydropyran-4-carbonyl]amino]cyclopropyl]benzoic acid, hydrochloride]: under 100 nM.
`CN(CCOc1ccccc1)C1(C(=O)NC2(c3ccc(C(=O)O)c(F)c3)CC2)CCOCC1` [Example 49, 2-Fluoro-4-[1-[[4-[methyl(2-phenoxyethyl)amino]tetrahydropyran-4-carbonyl]amino]cyclopropyl]benzoic acid, hydrochloride] gave an IC50 of under 1000 nM.
The same measure for `COc1cccc(OCCNC2(C(=O)N[C@@H](C)c3ccc(C(=O)O)cc3)CCOCC2)c1` [Example 13, 4-[(1S)-1-[[4-[2-[3-Methoxyphenoxy]ethylamino]tetrahydropyran-4-carbonyl]amino]ethyl]benzoic acid, hydrochloride]: under 100 nM.
The same measure for `CN(CCOc1ccccc1C(F)(F)F)C1(C(=O)NC2(c3ccc(C(=O)O)cc3)CC2)CCOCC1` [Example 42, 4-[1-[[4-[2-(2-Trifluoromethylphenoxy)ethyl-methyl-amino]tetrahydropyran-4-carbonyl]amino]cyclopropyl]benzoic acid, hydrochloride]: under 1000 nM; for `C[C@H](NC(=O)C1(N2CC[C@@H](Oc3cccc(Cl)c3)C2)CCCC1)c1ccc(C(=O)O)cc1` [Example 157, 4-[(1S)-1-[[1-[(3R)-3-(3-Chlorophenoxy)pyrrolidin-1-yl]cyclopentane-1-carbonyl]amino]ethyl]benzoic acid, hydrochloride]: under 100 nM.
The figure for `C[C@H](NC(=O)C1(c2cccc(OCC3CCCC3)c2)CCOCC1)c1ccc(C(=O)O)cc1` [Example 102, 4-[(1S)-1-[[4-[3-(Cyclopentylmethoxy)phenyl]tetrahydropyran-4-carbonyl]amino]ethyl]benzoic acid] is under 1000 nM; for `C[C@H](NC(=O)C1(NCCOc2ccccc2)CCCC1)c1ccc(C(=O)O)cc1` [Example 61, 4-[(1S)-1-[[1-(2-Phenoxyethylamino)cyclopentanecarbonyl]amino]ethyl]benzoic acid, hydrochloride] it is under 100 nM.
Turning to `O=C(O)c1ccc(C2(NC(=O)C3(N4CC[C@@H](Oc5cccc(OC(F)(F)F)c5)C4)CCOCC3)CC2)cc1` [Example 147, 4-[1-[[4-[(3R)-3-[3-(Trifluoromethoxy)phenoxy]pyrrolidin-1-yl]tetrahydropyran-4-carbonyl]amino]cyclopropyl]benzoic acid, hydrochloride], the IC50 was under 100 nM.
Regarding `C[C@H](NC(=O)C1(c2ccc(OCCC3CCCCC3)cc2)CCCC1)c1ccc(C(=O)O)cc1` [Example 110, 4-[(1S)-1-[[1-[4-(2-Cyclohexylethoxy)phenyl]cyclopentanecarbonyl]amino]ethyl]benzoic acid], the IC50 was under 100 nM.
The figure for `COc1ccc([C@H](C)NC(=O)C2(N3CC[C@@H](Oc4cccc(C(F)(F)F)c4)C3)CCOCC2)cc1` [Example 195, N—((S)-1-(4-Methoxyphenyl)ethyl)-4-((R)-3-(3-(trifluoromethyl)phenoxy)pyrrolidin-1-yl)tetrahydro-2H-pyran-4-carboxamide, hydrochloride] is under 100 nM; for `C[C@H](NC(=O)C1(N(C)CCOc2ccccc2)CCCOC1)c1ccc(C(=O)O)cc1` (stereo partly drawn) [Example 73, 4-[(1S)-1-[[3-[Methyl(2-phenoxyethyl)amino]tetrahydropyran-3-carbonyl]amino]ethyl]benzoic acid, hydrochloride] it is under 1000 nM; for `CN(CCOc1cccc(C(F)(F)F)c1)C1(C(=O)NC2(c3ccc(C(=O)O)cc3)CC2)CCOCC1` [Example 41, 4-[1-[[4-[2-(3-Trifluoromethylphenoxy)ethyl-methyl-amino]tetrahydropyran-4-carbonyl]amino]cyclopropyl]benzoic acid, hydrochloride] it is under 100 nM.
The figure for `C[C@H](NC(=O)C1(NCCOc2ccccc2)CCOCC1)c1ccc(C(=O)O)cc1` [Example 1, 4-[(1S)-1-[[4-(2-Phenoxyethylamino)tetrahydropyran-4-carbonyl]amino]ethyl]benzoic acid, hydrochloride] is under 100 nM.
Turning to `COc1cccc([C@H](C)NC(=O)C2(N3CC[C@@H](Oc4cccc(C(F)(F)F)c4)C3)CCOCC2)c1` [Example 196, N—((S)-1-(3-Methoxyphenyl)ethyl)-4-((R)-3-(3-(trifluoromethyl)phenoxy)pyrrolidin-1-yl)tetrahydro-2H-pyran-4-carboxamide, hydrochloride], the half-inhibitory concentration (IC50) is under 1000 nM.
The figure for `O=C(O)c1ccc(C2(NC(=O)C3(N4CC[C@@H](Oc5cccc(Cl)c5)C4)CCOCC3)CC2)cc1` [Example 141, 4-[1-[[4-[(3R)-3-(3-Chlorophenoxy)pyrrolidin-1-yl]tetrahydropyran-4-carbonyl]amino]cyclopropyl]benzoic acid, hydrochloride] is under 100 nM; for `C[C@H](NC(=O)C1(N2CC[C@@H](Oc3cccc(C(F)(F)F)c3)C2)CCOCC1)c1ccccn1` [Example 186, N—((S)-1-(Pyridin-2-yl)ethyl)-4-((R)-3-(3-(trifluoromethyl)phenoxy)pyrrolidin-1-yl)tetrahydro-2H-pyran-4-carboxamide, hydrochloride] it is under 1000 nM.
The figure for `C[C@H](NC(=O)C1(N2CC[C@@H](Oc3cccc(F)c3)C2)CCOCC1)c1ccc(C(=O)O)cc1` [Example 142, 4-[(1S)-1-[[4-[(3R)-3-(3-Fluorophenoxy)pyrrolidin-1-yl]tetrahydropyran-4-carbonyl]amino]ethyl]benzoic acid, hydrochloride] is under 100 nM; for `C[C@H](NC(=O)C1(N2CC[C@@H](Oc3cccc(C(F)(F)F)c3)C2)CCOCC1)c1ccccc1F` [Example 189, N—((S)-1-(2-Fluorophenyl)ethyl)-4-((R)-3-(3-(trifluoromethyl)phenoxy)pyrrolidin-1-yl)tetrahydro-2H-pyran-4-carboxamide, hydrochloride] it is under 1000 nM; for `CC(C)CCOc1cccc(C2(C(=O)N[C@@H](C)c3ccc(C(=O)O)cc3)CCOCC2)c1` [Example 104, 4-[(1S)-1-[[4-(3-Isopentyloxyphenyl)tetrahydropyran-4-carbonyl]amino]ethyl]benzoic acid] it is under 1000 nM.
The same measure for `CCN(CCOc1cccc(Cl)c1)C1(C(=O)N[C@@H](C)c2ccc(C(=O)O)cc2)CCOCC1` [Example 10, 4-[(1S)-1-[[4-[2-(3-Chlorophenoxy)ethyl-ethyl-amino]tetrahydropyran-4-carbonyl]amino]ethyl]benzoic acid, hydrochloride]: under 100 nM.
In the case of `C[C@H](NC(=O)C1(c2ccc(OCc3ccccc3)cc2)CCOCC1)c1ccc(C(=O)O)cc1` [Example 88, 4-[(1S)-1-[[4-(4-Benzyloxyphenyl)tetrahydropyran-4-carbonyl]amino]ethyl]benzoic acid], the IC50 is under 1000 nM.
The figure for `CN(CCOc1cccc(OC(F)(F)F)c1)C1(C(=O)NC2(c3ccc(C(=O)O)cc3)CC2)CCOCC1` [Example 43, 4-[1-[[4-[2-(3-Trifluoromethoxyphenoxy)ethyl-methyl-amino]tetrahydropyran-4-carbonyl]amino]cyclopropyl]benzoic acid, hydrochloride] is under 100 nM; for `Cc1cccc(OCCN(C)C2(C(=O)N[C@@H](C)c3ccc(C(=O)O)cc3)CCCCC2)c1` [Example 59, 4-[(1S)-1-[[1-[Methyl-[2-(3-methylphenoxy)ethyl]amino]cyclohexanecarbonyl]amino]ethyl]benzoic acid, hydrochloride] it is under 100 nM.
The same measure for `Cc1cccc([C@H](C)NC(=O)C2(N3CC[C@@H](Oc4cccc(C(F)(F)F)c4)C3)CCOCC2)c1` [Example 194, N—((S)-1-(3-Methylphenyl)ethyl)-4-((R)-3-(3-(trifluoromethyl)phenoxy)pyrrolidin-1-yl)tetrahydro-2H-pyran-4-carboxamide, hydrochloride]: under 1000 nM; for `C[C@H](NC(=O)C1(NCCOc2cc(F)cc(F)c2)CCOCC1)c1ccc(C(=O)O)cc1` [Example 16, 4-[(1S)-1-[[4-[2-(3,5-Difluorophenoxy)ethylamino]tetrahydropyran-4-carbonyl]amino]ethyl]benzoic acid, hydrochloride]: under 100 nM; for `C[C@H](NC(=O)C1(N(C)CCOc2ccccc2)CCOCC1)c1ccc(C(=O)N(C)C)cc1` [Example 5, N-[(1S)-1-[4-(Dimethylcarbamoyl)phenyl]ethyl]-4-[methyl(2-phenoxyethyl)amino]tetrahydropyran-4-carboxamide]: under 1000 nM.
The figure for `O=C(O)c1ccc(C2(NC(=O)C3(N4CC[C@@H](Oc5ccccc5)C4)CCOCC3)CC2)cc1` [Example 153, 4-[1-[[4-((3R)-3-Phenoxypyrrolidin-1-yl)tetrahydropyran-4-carbonyl]amino]cyclopropyl]benzoic acid, hydrochloride] is under 100 nM.
